Data published in US11638744B2, “Immunity enhancing agent for cancer by Allergin-1 antagonist” (ONO PHARMACEUTICAL CO., LTD., priority 2015, dated 2023).

How the values were obtained:
[1] = test system: intraperitoneal macrophages (CD11b+F4/80+ cells); assay: Production of IFNβ after cGAMP stimulation of intraperitoneal macrophages; type: cell-based, mouse; settings: macrophages derived from Alg1-KO mice versus WT; 3, 10 or 30 μM; 24 and 48 hours
Experimental: To C57BL/6N mice and Alg1-KO mice, a 3% thioglycolate medium was intraperitoneally administered at 1 mL/body. After 3 days, 5 mL of 5 mM EDTA/PBS was injected for intraperitoneal lavage and the drain was collected. After haemolysis treatment, the proportion of CD11b^+F4/80^+ cells among intraperitoneal invasive cells was calculated on a flow cytometer.
The cells were seeded in a 96-well plate so that the CD11b^+F4/80^+ cells are 2×10^5 cells/well, the culture supernatant was discarded after 1 hour, the cells were washed once with the medium and the medium containing 3, 10 or 30 μM cyclic GMP-AMP (cGAMP), respectively was added. The culture supernatant was collected after 24 and 48 hours and the amount of IFN-β in the culture supernatants was measured.

TLR7 = assay: Production of type I IFN after administration of polyuridine (serum ELISA); type: in vivo; settings: Alg1-KO mice versus WT; 50 μg/mouse i.v. with DOTAP; 2 and 6 hours after administration
Experimental: To C57BL/6 mice (WT mice) and Alg1-KO mice, polyuridine was intravenously administered together with a liposome transfection reagent, DOTAP. The dosage was 50 μg/mouse. Serum IFNα and IFNβ were measured by ELISA at 2 and 6 hours after administration.

Row | Substance | production of IFNβ (culture supernatant) [1] | production of IFNα (serum) (TLR7) | production of IFNβ (serum) (TLR7)
1 | cyclic GMP-AMP [cGAMP] | increased compared to WT | – | –
2 | polyuridine | – | increased compared to WT | increased compared to WT
